Assay results reported in PubChem BioAssay AID248 (DTP/NCI, 2004).
Where “and” joins values, the source holds several entries; their conditions need not be identical. Equal entries are not always repeated. Inconclusive results and toxic doses are left out. Rule as the data show it: active = T/C of 150% or more; inactive = T/C below 125%.

Tested on: L1210 leukemia ip in BDF1 mice, survival T/C
Experiment: NCI In Vivo Anticancer Drug Screen. Data for tumor model L1210 Leukemia (intraperitoneal) in B6D2F1 (BDF1) mice
Settings: endpoint: mean survival time, higher = longer survival
Summary of the method: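 Mice bearing the transplanted tumor received compound or vehicle. Survival of the treated group was divided by that of the vehicle-treated control group to give the ratio.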

[1] = dose: 100.0 mg/kg/injection, schedule: Q04DX002 (ip), vehicle: Klucel (hydroxypropylcellulose) (HPC)
[2] = dose: 200.0 mg/kg/injection, schedule: Q04DX002 (ip), vehicle: Klucel (hydroxypropylcellulose) (HPC)
[3] = dose: 400.0 mg/kg/injection, schedule: Q04DX002 (ip), vehicle: Klucel (hydroxypropylcellulose) (HPC)
[4] = dose: 100.0 mg/kg/injection, schedule: Q01DX009 (ip), vehicle: acetone
[5] = dose: 200.0 mg/kg/injection, schedule: Q01DX009 (ip), vehicle: saline
[6] = dose: 100.0 mg/kg/injection, schedule: Q01DX001 (ip), vehicle: saline
[7] = dose: 200.0 mg/kg/injection, schedule: Q01DX001 (ip), vehicle: saline
[8] = dose: 400.0 mg/kg/injection, schedule: Q01DX001 (ip), vehicle: saline
[9] = dose: 100.0 mg/kg/injection, schedule: Q01DX009 (ip), vehicle: Klucel (hydroxypropylcellulose) (HPC)
[10] = dose: 200.0 mg/kg/injection, schedule: Q01DX009 (ip), vehicle: Klucel (hydroxypropylcellulose) (HPC)
[11] = dose: 400.0 mg/kg/injection, schedule: Q01DX009 (ip), vehicle: Klucel (hydroxypropylcellulose) (HPC)
[12] = dose: 100.0 mg/kg/injection, schedule: Q04DX003 (ip), vehicle: Klucel (hydroxypropylcellulose) (HPC)
[13] = dose: 200.0 mg/kg/injection, schedule: Q04DX003 (ip), vehicle: Klucel (hydroxypropylcellulose) (HPC)
[14] = dose: 400.0 mg/kg/injection, schedule: Q04DX003 (ip), vehicle: Klucel (hydroxypropylcellulose) (HPC)

Measured: T/C

CCCCCCCCOC(=O)c1ccc2nc3cc4ccccc4cc3nc2c1
inactive: [1] 94 % of control | [2] 92 % of control | [3] 92 % of control

CC1(C)C=CN2C(=O)C3=CCCN3C(=O)C2CC12Nc1ccccc1C2=O (stereo unspecified)
inactive: dose: 100.0 mg/kg/injection, schedule: Q04DX003 (ip), vehicle: other 111 % of control | dose: 200.0 mg/kg/injection, schedule: Q04DX003 (ip), vehicle: other 103 % of control | dose: 400.0 mg/kg/injection, schedule: Q04DX003 (ip), vehicle: other 93 % of control

C=C(Cl)CSCCCS
inactive: [4] 108 % of control | dose: 130.0 mg/kg/injection, schedule: Q01DX009 (ip), vehicle: saline 116 % of control | dose: 200.0 mg/kg/injection, schedule: Q01DX009 (ip), vehicle: acetone 123 % of control | [5] 120 % of control | dose: 300.0 mg/kg/injection, schedule: Q01DX009 (ip), vehicle: saline 120 % of control

O=C(CCCC(=O)N/N=C/c1c[nH]c2ccc(Br)cc12)N/N=C\c1c[nH]c2ccc(Br)cc12
inactive: dose: 50.0 mg/kg/injection, schedule: Q01DX001 (ip), vehicle: saline 105 % of control | [6] 102 % of control | [7] 107 % of control | [8] 96 % of control

Cc1ccc(NC(=O)COc2cc(Cl)c(Cl)cc2Cl)cc1C
inactive: dose: 25.0 mg/kg/injection, schedule: Q01DX009 (ip), vehicle: saline with Tween-80 89 % of control | dose: 50.0 mg/kg/injection, schedule: Q01DX009 (ip), vehicle: saline with Tween-80 97 % of control | dose: 100.0 mg/kg/injection, schedule: Q01DX009 (ip), vehicle: saline with Tween-80 89 % of control | dose: 400.0 mg/kg/injection, schedule: Q01DX009 (ip), vehicle: saline with Tween-80 94 % of control

C1=C(c2ccccc2)N(C2CCCCCC2)C(c2ccccc2)=CN1Cc1ccccc1
inactive: [1] 96 % of control | [2] 107 % of control | [3] 100 % of control

CCOc1ccccc1NC(=O)Oc1cc(C)c(Cl)c(C)c1
inactive: [9] 104 % of control | [10] 98 % of control | [11] 100 % of control

O=C1C2CC(CN3CCCCC23)C2CCCCN12 (stereo unspecified)
inactive: dose: 75.0 mg/kg/injection, schedule: Q01DX001 (ip), vehicle: saline 94 % of control | dose: 150.0 mg/kg/injection, schedule: Q01DX001 (ip), vehicle: saline 103 % of control | dose: 300.0 mg/kg/injection, schedule: Q01DX001 (ip), vehicle: saline 101 % of control

O=[P+](O)C(O)c1ccccc1 (stereo unspecified)
inactive: dose: 100.0 mg/kg/injection, schedule: Q01DX009 (ip), vehicle: saline 95 % of control | [5] 95 % of control | dose: 400.0 mg/kg/injection, schedule: Q01DX009 (ip), vehicle: saline 95 % of control

CCCCC(=O)N/N=C/c1ccc(N(C)C)cc1
inactive: [6] 91 % of control | [7] 87 % of control | [8] 95 % of control

O=C(N/N=C/C=C/c1ccccc1)[C@H](O)[C@@H](O)C(=O)N/N=C/C=C/c1ccccc1
inactive: [6] 92 % of control | [4] 90 % of control | dose: 100.0 mg/kg/injection, schedule: Q04DX003 (ip), vehicle: saline 88 % of control | [7] 93 % of control | dose: 200.0 mg/kg/injection, schedule: Q04DX003 (ip), vehicle: saline 88 % of control | [8] 93 % of control | dose: 400.0 mg/kg/injection, schedule: Q01DX009 (ip), vehicle: acetone 92 % of control | dose: 400.0 mg/kg/injection, schedule: Q04DX003 (ip), vehicle: saline 97 % of control

C=CCC[P+](c1ccccc1)(c1ccccc1)c1ccccc1
inactive: dose: 12.5 mg/kg/injection, schedule: Q04DX003 (ip), vehicle: Klucel (hydroxypropylcellulose) (HPC) 97 % of control | dose: 16.0 mg/kg/injection, schedule: Q04DX003 (ip), vehicle: Klucel (hydroxypropylcellulose) (HPC) 90 % of control | dose: 25.0 mg/kg/injection, schedule: Q04DX003 (ip), vehicle: Klucel (hydroxypropylcellulose) (HPC) 104 % of control | dose: 35.0 mg/kg/injection, schedule: Q04DX003 (ip), vehicle: Klucel (hydroxypropylcellulose) (HPC) 101 % of control | dose: 50.0 mg/kg/injection, schedule: Q04DX003 (ip), vehicle: Klucel (hydroxypropylcellulose) (HPC) 95 % of control and 103 % of control

CCC(c1ccc2cc(OC)ccc2c1)C(C)(C)C(=O)O (stereo unspecified)
inactive: dose: 100.0 mg/kg/injection, schedule: Q01DX001 (sc), vehicle: steriod suspending solution 112 % of control | dose: 200.0 mg/kg/injection, schedule: Q01DX001 (sc), vehicle: steriod suspending solution 95 % of control | dose: 400.0 mg/kg/injection, schedule: Q01DX001 (sc), vehicle: steriod suspending solution 101 % of control

c1ccc2c(c1)ccc1cc3cnccc3cc12
inactive: [6] 95 % of control | [7] 103 % of control | [8] 101 % of control

C/C(=N\N1CCCCCC1)c1ccccc1
inactive: dose: 100.0 mg/kg/injection, schedule: Q01DX009 (sc), vehicle: olive oil, sesame oil, peanut oil 95 % of control | dose: 100.0 mg/kg/injection, schedule: Q04DX003 (sc), vehicle: olive oil, sesame oil, peanut oil 112 % of control | dose: 200.0 mg/kg/injection, schedule: Q01DX009 (sc), vehicle: olive oil, sesame oil, peanut oil 98 % of control | dose: 200.0 mg/kg/injection, schedule: Q04DX003 (sc), vehicle: olive oil, sesame oil, peanut oil 105 % of control | dose: 400.0 mg/kg/injection, schedule: Q01DX009 (sc), vehicle: olive oil, sesame oil, peanut oil 97 % of control | dose: 400.0 mg/kg/injection, schedule: Q04DX003 (sc), vehicle: olive oil, sesame oil, peanut oil 105 % of control

OCCCCCn1cnc2c(=S)nc[nH]c21
inactive: [9] 101 % of control | [12] 93 % of control | [10] 101 % of control | [13] 98 % of control | [11] 102 % of control | [14] 95 % of control

O=C(Nc1ccc(F)c(Cl)c1)Oc1ccc(OCc2ccccc2)cc1
inactive: [12] 94 % of control | [13] 94 % of control | [14] 95 % of control

COCC(=O)CC(C)=O
inactive: [9] 98 % of control | [12] 100 % of control | [10] 106 % of control | [13] 95 % of control | [11] 101 % of control | [14] 101 % of control

O=[As]1(c2cccc3ccccc23)c2ccccc2Cc2ccccc21
inactive: dose: 83.0 mg/kg/injection, schedule: Q01DX Z (ip), vehicle: methylcellulose (MC) 86 % of control | dose: 125.0 mg/kg/injection, schedule: Q01DX Z (ip), vehicle: methylcellulose (MC) 86 % of control
